{"source": "patent US7074768B2", "about": "“Modified protein kinase A-specific oligonucleotides and methods of their use” (Idera Pharmaceuticals, Inc., priority 1995, dated 2006)", "key": {"[1]": {"test_system": "1A9PTX22 human ovarian cancer cells", "experiment": "Soft agar growth of 1A9PTX22 cells", "assay_type": "cell-based", "experimental": "Cell lines. The 1A9PTX22 cell line, a paclitaxel (PTX)-resistant clone of the human ovarian carcinoma cell line 1A9, was isolated by exposing 1A9 cells to 5 ng/ml PTX in the presence of 5 μg/ml verapamil, a P glicoprotein antagonist. 1A9PTX22 cells were kindly provided by Dr. Giannakakou, NCI Bethesda, Md., USA. Cells were maintained in RPMI medium supplemented with 10% heat-inactivated FBS, 20 mM HEPES, pH 7.4 penicillin (100 UI/ml), streptomycin (100 μg/ml) and 4 mM glutamine (ICN, Irvine, UK) 15 ng/ml PIX and 5 μg/ml verapamil in a humified atmosphere of 95% air and 5% CO2 at 37° C. 7 days before experiments were performed, PTX and verapamil were removed from culture medium.\nSoft agar growth. Cells (10^4 cells/well) were seeded in 0.5 ml of 0.3% Difco Noble agar (Difco, Detroit, Mich.) supplemented with complete culture medium. This suspension was layered over 0.5 ml of 0.8% agar-medium base layer in 24 multiwell cluster dishes (Becton Dickinson) and treated with various concentrations of HYB 165 or HYB508 every […] for three times. After 12 days the cells were stained with nitroblue tetrazolium (Sigma, St. Louis, Mo.) and colonies larger than 0.05 mm were counted."}, "[2]": {"test_system": "TGFα", "experiment": "Histochemical analysis of GEO tumors: TGFα", "assay_type": "in vivo", "conditions": "single agent, after two cycles", "source_text": "Tumor specimens from the different groups of mice were examined by histochemical analysis at different time points to evaluate the expression of a variety of biological parameters.\nTGFα and AR are growth factors which bind to EGFR and control human colon cancer growth through autocrine and paracrine mechanisms (F. Ciardiello and G. Tortora, Clin. Cancer Res. 4:821–828 (1998); D. S. Salomon, Crit. Rev. Oncol. Hematol. 19:183–232 (1995))."}, "[3]": {"test_system": "Factor VIII related antigen", "experiment": "Tumor-induced neovascularization (anti-Factor VIII related antigen immunohistochemistry)", "assay_type": "in vivo", "source_text": "In recent years, the critical role of tumor-induced neovascularization in neoplastic development, progression and metastasis has been elucidated (J. I. Fokman, In: J. Mendelsohn et al., eds., The Molecular Basis of Cancer, pp 206–232, Philadelphia: W B Saunders (1995) . A reliable histologic estimate of novel blood vessels on tumor specimens is the microvessel count (MVC) in the most intense areas of neovascularization. In the present study, tumor-induced neovascularization was quantified by immunohistochemistry using an anti-Factor VIII related antigen monoclonal antibody (N. Weidner, Breast Cancer Res. Treat., 36:169–180 (1995))."}}}
{"substance": "HYB 165: Hybrid 18-mer mixed backbone antisense to PKA RIα, GCGUGCCTCCTCACUGGC (SEQ ID NO:4), 2-O-methyl ribonucleotides at 5′ and 3′ ends (sugars by position and backbone not given here; 2'-O-methyl ribonucleotides at both ends, mixed backbone)", "values": [{"measurement": "inhibition of cell growth", "setting": "[1]; 0.1 μM", "value": "approximately 5%"}, {"measurement": "inhibition of cell growth", "setting": "[1]; 0.5 μM", "value": "about 50%"}, {"measurement": "inhibition of cell growth", "setting": "[1]; 1 μM", "value": "about 82%"}, {"measurement": "inhibition of cell growth", "setting": "[1]; 2.5 μM", "value": "over 95%"}, {"measurement": "expression of TGFα", "setting": "[2]", "value": "inhibited the expression of TGF α and AR"}, {"measurement": "vessel formation", "setting": "[3]; combined treatment with taxol and HYB 165", "value": "completely suppressed vessel formation in GEO tumors"}, {"measurement": "inhibition of staining (microvessel count)", "setting": "[3]; single agent, vs untreated mice or scramble MBO", "value": "about 80%"}]}
